According to paper PMC10648875 (Antimicrobial Agents and Chemotherapy, 2023):
≈ marks a conversion by molar mass, not a printed value. Where “and” joins values, the source holds several entries; their conditions need not be identical. Identical values can stand only once.

Assays:
CTX-M-14 = CTX-M-14 (Escherichia coli, UniProt Q9L5C7); assay: Ki app of β-lactamase inhibition, purified enzyme; format: biochemical; conditions: 10-minute preincubation; nitrocefin substrate
Protocol: (§1) The majority of purified β-lactamase enzymes used in the study were either expressed and purified internally ([35]) or obtained from Emerald Biostructures (Bainbridge Island, WA, USA). L1 enzyme was purified as described in reference ([36]).
(§2) Enzymes were mixed with BLIs at concentrations varying from 160 to 0.0027 µM in 50-mM Na-phosphate pH7.0, 0.1-mg/mL bovide serum albumin (BSA) (buffer A; 20-µM ZnCl2 was also added for all metalloenzymes) and incubated for 10 minutes at 37°C. Nitrocefin (50 µM) (10 µM for SHV-12) or 100 µM of imipenem (prewarmed at 37°C for 10 minutes) was added, and substrate cleavage profiles were recorded at 37°C at 490 nm every 10 seconds for 10 minutes or at 294 nm every 30 seconds for 1 hour for nitrocefin and imipenem, respectively. […] Ki app values (Ki for metalloenzymes) were calculated by the method of Waley ([37]).

CTX-M-15 = CTX-M-15 (Escherichia coli, UniProt Q9EXV5); assay: Ki app of β-lactamase inhibition, purified enzyme; format: biochemical; conditions: 10-minute preincubation; nitrocefin substrate
Protocol: as §1, §2

OXA-23 = OXA-23 (Acinetobacter baumannii, UniProt Q9L4P2); assay: Ki app of β-lactamase inhibition, purified enzyme; format: biochemical; conditions: 10-minute preincubation; nitrocefin substrate
Protocol: as §1, §2

P99 = P99 (Enterobacter cloacae, UniProt P05364); assay: Ki app of β-lactamase inhibition, purified enzyme; format: biochemical; conditions: 10-minute preincubation; nitrocefin substrate; read-out: Ki app
Protocol: as §1, §2

PDC1 = PDC1 (Pseudomonas aeruginosa, UniProt P24735); assay: Ki app of β-lactamase inhibition, purified enzyme; format: biochemical; conditions: 10-minute preincubation; nitrocefin substrate
Protocol: as §1, §2

L1 = molecular target: T1, L1 (Stenotrophomonas maltophilia, UniProt P52700); assay: Ki of metallo-β-lactamase inhibition, purified enzyme; format: biochemical; conditions: 10-minute preincubation; nitrocefin substrate
T1 construct: made in house
Protocol: as §1, §2

VIM-1 = VIM-1 (Pseudomonas aeruginosa, UniProt A0A0F7KYQ8); assay: as above; format: biochemical; conditions: 10-minute preincubation, nitrocefin substrate
Protocol: as §1, §2

[1] = tested on: isogenic efflux and porin mutants of K. pneumoniae and their NDM-1-producing derivatives; assay: MIC against isogenic efflux and porin mutants (Table 9); format: cell-based; conditions: for MIC: Klebsiella pneumoniae; for MIC / BLI MIC: BLI alone
[2] = KPM1026a, Wild type, ATCC 43816, β-lactamase None, BLI 0 µg/mL
[3] = KPM1026a, Wild type, ATCC 43816, β-lactamase None, BLI 4 µg/mL
[4] = KPM1026a, Wild type, ATCC 43816, β-lactamase None, BLI 8 µg/mL
[5] = KPM1027, ramR*, β-lactamase None, BLI 0 µg/mL
[6] = KPM1027, ramR*, β-lactamase None, BLI 4 µg/mL
[7] = KPM1027, ramR*, β-lactamase None, BLI 8 µg/mL
[8] = KPM1281, Wild type, ATCC 43816, NDM-1, BLI 0 µg/mL
[9] = KPM1281, Wild type, ATCC 43816, NDM-1, BLI 4 µg/mL
[10] = KPM1281, Wild type, ATCC 43816, NDM-1, BLI 8 µg/mL
[11] = KPM1282, ramR*, NDM-1, BLI 0 µg/mL
[12] = KPM1282, ramR*, NDM-1, BLI 4 µg/mL
[13] = KPM1282, ramR*, NDM-1, BLI 8 µg/mL
[14] = KPM2013, mpK36_2040 ΔompK35, β-lactamase None, BLI 0 µg/mL
[15] = KPM2013, mpK36_2040 ΔompK35, β-lactamase None, BLI 4 µg/mL
[16] = KPM2013, mpK36_2040 ΔompK35, β-lactamase None, BLI 8 µg/mL
[17] = KPM2040, mpK36_2040*, β-lactamase None, BLI 0 µg/mL
[18] = KPM2040, mpK36_2040*, β-lactamase None, BLI 4 µg/mL
[19] = KPM2040, mpK36_2040*, β-lactamase None, BLI 8 µg/mL
[20] = KPM3820, mpK36_2040*, NDM-1, BLI 0 µg/mL
[21] = KPM3820, mpK36_2040*, NDM-1, BLI 4 µg/mL
[22] = KPM3820, mpK36_2040*, NDM-1, BLI 8 µg/mL
[23] = KPM3825, mpK36_2040 ΔompK35, NDM-1, BLI 0 µg/mL
[24] = KPM3825, mpK36_2040 ΔompK35, NDM-1, BLI 4 µg/mL
[25] = KPM3825, mpK36_2040 ΔompK35, NDM-1, BLI 8 µg/mL
[26] = KPM2013, mpK36_2040 ΔompK35, β-lactamase None
[27] = KPM2040, mpK36_2040*, β-lactamase None
[28] = KPM3825, mpK36_2040 ΔompK35, NDM-1

Sequence of P99 (P05364 21-381): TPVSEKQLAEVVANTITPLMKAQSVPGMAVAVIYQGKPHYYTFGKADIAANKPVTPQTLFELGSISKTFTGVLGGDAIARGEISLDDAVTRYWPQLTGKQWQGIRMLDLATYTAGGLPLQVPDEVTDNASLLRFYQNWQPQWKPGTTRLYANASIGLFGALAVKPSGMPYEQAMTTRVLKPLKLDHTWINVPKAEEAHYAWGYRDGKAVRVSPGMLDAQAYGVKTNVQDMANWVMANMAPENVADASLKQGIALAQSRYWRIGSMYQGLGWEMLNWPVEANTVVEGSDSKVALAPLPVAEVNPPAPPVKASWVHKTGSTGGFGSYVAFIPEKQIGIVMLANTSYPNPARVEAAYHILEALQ
Sequence of OXA-23 (Q9L4P2 18-273): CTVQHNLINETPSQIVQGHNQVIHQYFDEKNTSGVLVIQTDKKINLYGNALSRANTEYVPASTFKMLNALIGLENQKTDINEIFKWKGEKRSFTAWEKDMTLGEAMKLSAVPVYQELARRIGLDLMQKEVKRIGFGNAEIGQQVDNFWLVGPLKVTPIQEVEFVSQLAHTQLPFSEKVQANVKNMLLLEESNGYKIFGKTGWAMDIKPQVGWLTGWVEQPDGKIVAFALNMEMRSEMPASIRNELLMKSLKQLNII
Sequence of CTX-M-14 (Q9L5C7 entry or part of it): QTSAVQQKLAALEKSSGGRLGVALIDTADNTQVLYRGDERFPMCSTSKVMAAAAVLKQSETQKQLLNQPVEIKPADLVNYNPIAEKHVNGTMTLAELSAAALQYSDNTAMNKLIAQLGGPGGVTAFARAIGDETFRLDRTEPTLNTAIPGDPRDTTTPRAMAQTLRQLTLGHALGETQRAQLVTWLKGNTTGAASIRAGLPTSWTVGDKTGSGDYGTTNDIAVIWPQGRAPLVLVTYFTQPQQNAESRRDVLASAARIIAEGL
Sequence of PDC1 (P24735 27-397): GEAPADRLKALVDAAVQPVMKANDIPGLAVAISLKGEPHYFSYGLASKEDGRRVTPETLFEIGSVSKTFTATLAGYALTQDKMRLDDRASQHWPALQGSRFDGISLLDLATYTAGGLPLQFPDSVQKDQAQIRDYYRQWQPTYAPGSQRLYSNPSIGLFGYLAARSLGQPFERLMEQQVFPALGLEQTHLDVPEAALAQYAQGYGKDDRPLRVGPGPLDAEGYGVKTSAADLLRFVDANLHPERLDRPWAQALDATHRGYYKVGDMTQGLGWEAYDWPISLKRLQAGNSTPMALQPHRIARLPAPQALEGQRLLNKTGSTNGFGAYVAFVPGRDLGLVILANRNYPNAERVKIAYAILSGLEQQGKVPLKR
Sequence of CTX-M-15 (Q9EXV5 entry or part of it): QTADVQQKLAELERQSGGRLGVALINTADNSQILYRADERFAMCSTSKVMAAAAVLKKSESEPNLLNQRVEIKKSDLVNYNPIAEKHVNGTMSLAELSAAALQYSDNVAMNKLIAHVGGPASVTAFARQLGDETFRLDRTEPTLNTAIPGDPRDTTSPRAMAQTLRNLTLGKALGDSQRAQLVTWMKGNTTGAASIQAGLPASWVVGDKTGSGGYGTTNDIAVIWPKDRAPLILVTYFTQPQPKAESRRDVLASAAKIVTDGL
T1 sequence (P52700 34-290): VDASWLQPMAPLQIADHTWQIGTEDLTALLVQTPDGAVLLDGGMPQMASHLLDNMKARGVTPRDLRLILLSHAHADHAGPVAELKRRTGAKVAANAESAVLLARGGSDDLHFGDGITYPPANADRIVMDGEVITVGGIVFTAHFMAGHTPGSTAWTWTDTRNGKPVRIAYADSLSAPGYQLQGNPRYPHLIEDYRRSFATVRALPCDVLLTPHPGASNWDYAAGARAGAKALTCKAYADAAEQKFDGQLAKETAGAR

Compound: O=C(O)c1c(F)ccc2c1OB(O)[C@@H]1C[C@H]21 [Xeruborbactam, xeruborbactam]
- Ki (CTX-M-14): 0.29 ± 0.06 nM
- Ki (CTX-M-15): 0.37 ± 0.01 nM
- Ki (OXA-23): 0.74 ± 0.28 nM
- Ki (P99): 8 nM and 8.5 nM
- Ki (PDC1): 14 nM
- Ki (L1): 1400 nM
- Ki (VIM-1): 32 ± 14 nM
- Cefepime MIC with BLIs [1, 2]: 0.03 µg/mL
- Meropenem MIC with BLIs [1, 2]: 0.03 µg/mL
- Cefepime MIC with BLIs [1, 3]: 0.015 µg/mL
- Meropenem MIC with BLIs [1, 3]: 0.015 µg/mL
- Cefepime MIC with BLIs [1, 4]: 0.002 µg/mL
- Meropenem MIC with BLIs [1, 4]: 0.008 µg/mL
- Cefepime MIC with BLIs [1, 5]: 0.25 µg/mL
- Meropenem MIC with BLIs [1, 5]: 0.06 µg/mL
- Cefepime MIC with BLIs [1, 6]: 0.125 µg/mL
- Meropenem MIC with BLIs [1, 6]: 0.015 µg/mL
- Cefepime MIC with BLIs [1, 7]: 0.015 µg/mL
- Meropenem MIC with BLIs [1, 7]: 0.004 µg/mL
- Cefepime MIC with BLIs [1, 8]: 16 µg/mL
- Meropenem MIC with BLIs [1, 8]: 32 µg/mL
- Cefepime MIC with BLIs [1, 9]: 0.03 µg/mL
- Meropenem MIC with BLIs [1, 9]: 0.06 µg/mL
- Cefepime MIC with BLIs [1, 10]: 0.008 µg/mL
- Meropenem MIC with BLIs [1, 10]: 0.004 µg/mL
- Cefepime MIC with BLIs [1, 11]: 32 µg/mL
- Meropenem MIC with BLIs [1, 11]: 64 µg/mL
- Cefepime MIC with BLIs [1, 12]: 0.25 µg/mL
- Meropenem MIC with BLIs [1, 12]: 0.125 µg/mL
- Cefepime MIC with BLIs [1, 13]: 0.06 µg/mL
- Meropenem MIC with BLIs [1, 13]: 0.03 µg/mL
- Cefepime MIC with BLIs [1, 14]: 0.5 µg/mL
- Meropenem MIC with BLIs [1, 14]: 0.25 µg/mL
- Cefepime MIC with BLIs [1, 15]: 0.25 µg/mL
- Meropenem MIC with BLIs [1, 15]: 0.125 µg/mL
- Cefepime MIC with BLIs [1, 16]: 0.06 µg/mL
- Meropenem MIC with BLIs [1, 16]: 0.06 µg/mL
- Cefepime MIC with BLIs [1, 17]: 0.125 µg/mL
- Meropenem MIC with BLIs [1, 17]: 0.125 µg/mL
- Cefepime MIC with BLIs [1, 18]: 0.06 µg/mL
- Meropenem MIC with BLIs [1, 18]: 0.06 µg/mL
- Cefepime MIC with BLIs [1, 19]: 0.015 µg/mL
- Meropenem MIC with BLIs [1, 19]: 0.03 µg/mL
- Cefepime MIC with BLIs [1, 20]: 128 µg/mL
- Meropenem MIC with BLIs [1, 20]: 128 µg/mL
- Cefepime MIC with BLIs [1, 21]: 1 µg/mL
- Meropenem MIC with BLIs [1, 21]: 4 µg/mL
- Cefepime MIC with BLIs [1, 22]: 0.5 µg/mL
- Meropenem MIC with BLIs [1, 22]: 1 µg/mL
- Cefepime MIC with BLIs [1, 23]: 256 µg/mL
- Meropenem MIC with BLIs [1, 23]: 256 µg/mL
- Cefepime MIC with BLIs [1, 24]: 2 µg/mL
- Meropenem MIC with BLIs [1, 24]: 8 µg/mL
- Cefepime MIC with BLIs [1, 25]: 1 µg/mL
- Meropenem MIC with BLIs [1, 25]: 2 µg/mL
- MIC ([1]; ATCC43816, KPM1026a, Wild type, ATCC 43816, β-lactamase None): 16 µg/mL (≈ 72.1 µM)
- MIC ([1]; ATCC43816, KPM1281, Wild type, ATCC 43816, NDM-1): 16 µg/mL (≈ 72.1 µM)
- MIC [1, 26]: 32 µg/mL (≈ 144 µM)
- MIC [1, 27]: 32 µg/mL (≈ 144 µM)
- MIC ([1]; KPM3820, mpK36_2040*, NDM-1): 32 µg/mL (≈ 144 µM)
- MIC [1, 28]: 32 µg/mL (≈ 144 µM)

Compound: NCCN[C@H]1CC[C@H](CC(=O)N[C@H]2Cc3cccc(C(=O)O)c3OB2O)CC1 [Taniborbactam, taniborbactam]
- Ki (CTX-M-14): 1.2 ± 0.5 nM
- Ki (CTX-M-15): 2.6 ± 0.1 nM
- Ki (OXA-23): > 20000 nM
- Ki (P99): 2.4 ± 0.5 nM
- Ki (PDC1): 22 nM
- Ki (L1): 17000 nM
- Ki (VIM-1): 31 ± 3 nM
- Ki (VIM-1; listed as taniborbactam): ~30 nM
- Cefepime MIC with BLIs [1, 2]: 0.03 µg/mL
- Meropenem MIC with BLIs [1, 2]: 0.03 µg/mL
- Cefepime MIC with BLIs [1, 3]: 0.03 µg/mL
- Meropenem MIC with BLIs [1, 3]: 0.03 µg/mL
- Cefepime MIC with BLIs [1, 4]: 0.03 µg/mL
- Meropenem MIC with BLIs [1, 4]: 0.03 µg/mL
- BLI MIC ([1]; KPM1026a, Wild type, ATCC 43816, β-lactamase None): >64 µg/mL
- Cefepime MIC with BLIs [1, 5]: 0.25 µg/mL
- Meropenem MIC with BLIs [1, 5]: 0.06 µg/mL
- Cefepime MIC with BLIs [1, 6]: 0.25 µg/mL
- Meropenem MIC with BLIs [1, 6]: 0.06 µg/mL
- Cefepime MIC with BLIs [1, 7]: 0.25 µg/mL
- Meropenem MIC with BLIs [1, 7]: 0.06 µg/mL
- BLI MIC ([1]; KPM1027, ramR*, β-lactamase None): >64 µg/mL
- Cefepime MIC with BLIs [1, 8]: 16 µg/mL
- Meropenem MIC with BLIs [1, 8]: 32 µg/mL
- Cefepime MIC with BLIs [1, 9]: 0.25 µg/mL
- Meropenem MIC with BLIs [1, 9]: 0.125 µg/mL
- Cefepime MIC with BLIs [1, 10]: 0.125 µg/mL
- Meropenem MIC with BLIs [1, 10]: 0.06 µg/mL
- BLI MIC ([1]; KPM1281, Wild type, ATCC 43816, NDM-1): >64 µg/mL
- Cefepime MIC with BLIs [1, 11]: 32 µg/mL
- Meropenem MIC with BLIs [1, 11]: 64 µg/mL
- Cefepime MIC with BLIs [1, 12]: 0.5 µg/mL
- Meropenem MIC with BLIs [1, 12]: 0.25 µg/mL
- Cefepime MIC with BLIs [1, 13]: 0.5 µg/mL
- Meropenem MIC with BLIs [1, 13]: 0.125 µg/mL
- BLI MIC ([1]; KPM1282, ramR*, NDM-1): >64 µg/mL
- Cefepime MIC with BLIs [1, 14]: 0.5 µg/mL
- Meropenem MIC with BLIs [1, 14]: 0.25 µg/mL
- Cefepime MIC with BLIs [1, 15]: 0.5 µg/mL
- Meropenem MIC with BLIs [1, 15]: 0.25 µg/mL
- Cefepime MIC with BLIs [1, 16]: 0.5 µg/mL
- Meropenem MIC with BLIs [1, 16]: 0.25 µg/mL
- BLI MIC [1, 26]: >64 µg/mL
- Cefepime MIC with BLIs [1, 17]: 0.125 µg/mL
- Meropenem MIC with BLIs [1, 17]: 0.125 µg/mL
- Cefepime MIC with BLIs [1, 18]: 0.125 µg/mL
- Meropenem MIC with BLIs [1, 18]: 0.125 µg/mL
- Cefepime MIC with BLIs [1, 19]: 0.125 µg/mL
- Meropenem MIC with BLIs [1, 19]: 0.125 µg/mL
- BLI MIC [1, 27]: >64 µg/mL
- Cefepime MIC with BLIs [1, 20]: 128 µg/mL
- Meropenem MIC with BLIs [1, 20]: 128 µg/mL
- Cefepime MIC with BLIs [1, 21]: 4 µg/mL
- Meropenem MIC with BLIs [1, 21]: 8 µg/mL
- Cefepime MIC with BLIs [1, 22]: 2 µg/mL
- Meropenem MIC with BLIs [1, 22]: 4 µg/mL
- BLI MIC ([1]; KPM3820, mpK36_2040*, NDM-1): >64 µg/mL
- Cefepime MIC with BLIs [1, 23]: 256 µg/mL
- Meropenem MIC with BLIs [1, 23]: 256 µg/mL
- Cefepime MIC with BLIs [1, 24]: 8 µg/mL
- Meropenem MIC with BLIs [1, 24]: 32 µg/mL
- Cefepime MIC with BLIs [1, 25]: 4 µg/mL
- Meropenem MIC with BLIs [1, 25]: 16 µg/mL
- BLI MIC [1, 28]: >64 µg/mL
